Laboratory results taken from patent US8722849B2, “Polypeptides” (Novo Nordisk A/S, priority 2011, dated 2014).
Values after ≈ are worked out from the molar mass of the structure shown. Where two headings read alike, the source gives them in different places. Starred links: 1 amine or outer side, 2 acyl side, 3 side chain; linkers in the order of their positions; H or OH if unused. Positions of bridges follow the written chain, without caps; N, C: chain ends. Residues, ends and D or L forms follow the SMILES beside them. *: point of attachment. C20 diacid = O=C(O)CCCCCCCCCCCCCCCCCCC(=O)*; γGlu = O=C(O)[C@H](CCC(=O)[*:2])N[*:1]

What was measured:
[1] = molecular target: T1, human amylin receptor (amylin 3(a) receptor: human calcitonin receptor + RAMP-3) (Homo sapiens, UniProt O60896+P30988); assay: Assay (II)a functional CRE-luciferase assay, human amylin receptor; type: cell-based
T1 construct: expressed in transfected cells; host or cells: BHK570
T1 sequence (P30988 25-474): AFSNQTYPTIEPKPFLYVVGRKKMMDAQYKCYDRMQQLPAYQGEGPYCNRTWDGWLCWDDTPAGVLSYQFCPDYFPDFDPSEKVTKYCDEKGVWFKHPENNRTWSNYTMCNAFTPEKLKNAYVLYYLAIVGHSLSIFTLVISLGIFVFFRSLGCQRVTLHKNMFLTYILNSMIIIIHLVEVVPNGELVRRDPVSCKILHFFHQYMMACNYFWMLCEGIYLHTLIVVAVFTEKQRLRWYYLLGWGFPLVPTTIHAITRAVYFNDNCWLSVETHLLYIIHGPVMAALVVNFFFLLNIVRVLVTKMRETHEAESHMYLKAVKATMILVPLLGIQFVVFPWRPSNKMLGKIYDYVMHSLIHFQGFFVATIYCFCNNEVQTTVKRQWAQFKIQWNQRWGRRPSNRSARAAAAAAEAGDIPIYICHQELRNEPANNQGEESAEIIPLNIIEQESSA
T1 sequence (O60896 24-148 partner): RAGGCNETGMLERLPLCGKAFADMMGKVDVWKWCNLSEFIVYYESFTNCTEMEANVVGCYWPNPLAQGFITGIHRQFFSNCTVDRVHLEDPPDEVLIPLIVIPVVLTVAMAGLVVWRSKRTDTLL

[2] = molecular target: T2, human calcitonin receptor (Homo sapiens, UniProt P30988); assay: Assay (II)a functional CRE-luciferase assay, human calcitonin receptor; type: cell-based; settings: Table 7; human calcitonin (CTa) receptor
T2 construct: expressed in transfected cells; host or cells: BHK570
T2 sequence (P30988 25-474): T1 sequence (P30988 25-474)

[3] = molecular target: T3, rat amylin 3(a) receptor (rat calcitonin(a) receptor + rat RAMP3) (Rattus norvegicus, UniProt P32214+Q9JJ73); assay: Assay (II)b functional cAMP FlashPlate assay, rat amylin receptor; type: cell-based; settings: Table 11
T3 construct: expressed in transfected cells; host or cells: BHK tk'ts 13
T3 sequence (P32214 25-479 isoform P32214-2 limits assumed): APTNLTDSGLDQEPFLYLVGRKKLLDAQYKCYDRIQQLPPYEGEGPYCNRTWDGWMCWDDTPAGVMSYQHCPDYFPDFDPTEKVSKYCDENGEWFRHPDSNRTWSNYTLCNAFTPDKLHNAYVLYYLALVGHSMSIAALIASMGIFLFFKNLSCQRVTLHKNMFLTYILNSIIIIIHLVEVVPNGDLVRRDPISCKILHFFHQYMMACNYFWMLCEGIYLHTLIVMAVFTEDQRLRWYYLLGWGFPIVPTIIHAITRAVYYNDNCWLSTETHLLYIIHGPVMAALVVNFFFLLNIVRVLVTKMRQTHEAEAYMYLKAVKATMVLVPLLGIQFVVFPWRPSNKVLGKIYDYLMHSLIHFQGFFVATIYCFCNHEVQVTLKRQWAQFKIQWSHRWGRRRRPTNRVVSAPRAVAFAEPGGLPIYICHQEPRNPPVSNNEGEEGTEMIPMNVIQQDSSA
T3 sequence (Q9JJ73 23-147 partner): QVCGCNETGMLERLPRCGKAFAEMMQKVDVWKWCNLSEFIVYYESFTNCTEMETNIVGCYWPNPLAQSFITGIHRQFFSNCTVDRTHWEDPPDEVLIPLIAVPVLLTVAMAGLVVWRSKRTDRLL
Description: (§1) Assay (II)b—Rat Calcitonin and Rat Amylin Receptor Assays
(§2) Activation of calcitonin and amylin (coexpression of calcitonin receptor and receptor activity modifying proteins (RAMP)) receptors lead to increased intracellular concentrations of cAMP. In order to quantify the cAMP levels in transiently transfected cells the Adenylyl Cyclase Activation FlashPlate® Assay from […] was used. The basic principle of the FlashPlate® Assay is a competition between radioactive and non-radioactive cAMP generated by the cells for a fixed number of binding sites.
(§3) Construction of rat calcitonin(a)—and rat amylin 3(a)-receptor cells.
(§4) BHK tk'ts 13 cells were transiently transfected with either rat calcitonin (a) receptor or amylin 3 (a) receptor (rat calcitonin(a) receptor+ rat RAMP3) using FuGENE® 6 (ROCHE), according to the manufacturers recommendations.
(§5) 24 hours after transient transfection the cells (rat calcitonin(a)—or rat amylin 3(a)—receptor cells) were added (100.000 cells/well) to the 96 well FlashPlates® with samples or standard in FlashPlate stimulation buffer with IBMX and incubated for 30 min. Detection mix was created according to manufacturers protocol and scintillation measured after 3 h of incubation on TopCounter™ (Packard).

[4] = molecular target: T4, rat calcitonin (a) receptor (Rattus norvegicus, UniProt P32214); assay: Assay (II)b functional cAMP FlashPlate assay, rat calcitonin receptor; type: cell-based; settings: Table 11; read-out: CTa receptor rat EC50
T4 construct: expressed in transfected cells; host or cells: BHK tk'ts 13
T4 sequence (P32214 25-479 isoform P32214-2 limits assumed): T3 sequence (P32214 25-479 isoform P32214-2 limits assumed)
Description: as §1, §2, §3, §4, §5

[5] = Assay (IV) determination of solubility; type: physicochemical
Outline: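 Polypeptide in water (~500 nmol/ml) mixed 1:1 with 100 mM glycylglycine (pH 3.0–5.0) or bistrispropane (pH 6.0–8.0) buffers. Held 18 hours at room temperature, then centrifuged. Polypeptide remaining in solution quantified by HPLC.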

[6] = system: food intake; assay: Assay (I) efficacy testing on appetite (food intake), ad libitum fed rat model; type: in vivo, Sprague Dawley (SD) rats; settings: 3 nmol/kg
Outline: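 Sprague Dawley rats (200–250 g), single-housed under reversed light cycle with free food and water, got one ip, po or sc dose of 0.01–3 mg/kg just before lights-off. Individual food intake recorded hourly for 7 h, then at 24 h and sometimes 48 h; groups of 5–8, Grubbs outliers excluded.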

[7] = Table 2, BHK amylin 3(a)-receptor/CRE-luc cells
[8] = bistrispropane buffer, pH 6, pH 6.0, read-out: Solubility pH 6.0
[9] = bistrispropane buffer, pH 6.5, pH 6.5, read-out: Solubility pH 6.5
[10] = bistrispropane buffer, pH 7.5, pH 7.5, read-out: Solubility pH 7.5
[11] = bistrispropane buffer, pH 8, pH 8.0, read-out: Solubility pH 8.0
[12] = glycylglycine buffer, pH 3, pH 3.0, read-out: Solubility pH 3.0
[13] = glycylglycine buffer, pH 4, pH 4.0, 18 hours at room temperature, Table 2, read-out: Solubility pH 4.0
[14] = glycylglycine buffer, pH 4, pH 4.0, read-out: Solubility pH 4.0
[15] = glycylglycine buffer, pH 5, pH 5.0, read-out: Solubility pH 5.0

Row | EC50 [1, 7] [nM] | EC50 [2] [nM] | EC50 [3] [nM] | EC50 [4] [nM] | solubility at 18 h [5, 8] [µM] | solubility at 18 h [5, 9] [µM] | solubility at 18 h [5, 10] [µM] | solubility at 18 h [5, 11] [µM] | solubility at 18 h [5, 12] [µM] | solubility at 18 h [5, 13] [µM] | solubility at 18 h [5, 14] [µM] | solubility at 18 h [5, 15] [µM] | solubility at 18 h ([5]; pH 7.0, read-out: Solubility pH 7.0) [µM] | EC50 ([1]; Table 6, human amylin receptor) [nM] | solubility at 18 h ([5]; bistrispropane buffer, pH 7, pH 7.0, 18 hours at room temperature, Table 3, read-out: Solubility pH 7.0) [µM] | solubility at 18 h ([5]; bistrispropane buffer, pH 7, pH 7.0, read-out: Solubility pH 7.0) [µM] | SMILES | Food intake reduction 0-24 h 3 nmol/kg (%) ([6]; 0-24 h) | Food intake reduction 24-48 h 3 nmol/kg (%) ([6]; 24-48 h)
1 | 0.0775 | 0.409 | 0.082 | 6.76 | > 200 | 45 (≈ 214 µg/mL) | 26 (≈ 124 µg/mL) | 69 (≈ 328 µg/mL) | > 200 | > 200 | > 200 | > 200 | 9 (≈ 42.8 µg/mL) | – | – | – | CC[C@H](C)[C@H](NC(=O)[C@@H]1CCCN1C(=O)CNC(=O)[C@H](Cc1ccccc1)NC(=O)[C@H](CC(N)=O)NC(=O)[C@H](CC(N)=O)NC(=O)[C@H](CO)NC(=O)[C@H](CO)NC(=O)[C@H](Cc1cnc[nH]1)NC(=O)[C@H](CCCNC(=N)N)NC(=O)[C@H](CC(C)C)NC(=O)[C@H](Cc1ccccc1)NC(=O)[C@H](CCC(=O)O)NC(=O)[C@H](C)NC(=O)[C@H](CC(C)C)NC(=O)[C@H](CCCNC(=N)N)NC(=O)[C@H](CCC(N)=O)NC(=O)[C@@H](NC(=O)[C@H](C)NC(=O)[C@@H]1CSSC[C@H](NC(=O)[C@H](Cc2cnc[nH]2)NC(=O)[C@H](Cc2cnc[nH]2)NC(=O)[C@H](Cc2cnc[nH]2)NC(=O)CC[C@H](NC(=O)CCCCCCCCCCCCCCCCCCC(=O)O)C(=O)O)C(=O)N[C@@H](CC(N)=O)C(=O)N[C@@H]([C@@H](C)O)C(=O)N[C@@H](C)C(=O)N[C@@H]([C@@H](C)O)C(=O)N1)[C@@H](C)O)C(=O)N[C@@H](CC(C)C)C(=O)N1CCC[C@H]1C(=O)N1CCC[C@H]1C(=O)N[C@H](C(=O)N[C@@H](CC(N)=O)C(=O)N[C@H](C(=O)NCC(=O)N[C@@H](CO)C(=O)N[C@@H](CC(N)=O)C(=O)N[C@H](C(=O)N[C@@H](Cc1ccc(O)cc1)C(N)=O)[C@@H](C)O)C(C)C)[C@@H](C)O [Example 12, N-alpha-[(S)-4-Carboxy-4-(19-carboxynonadecanoylamino)butyryl]-His-His-[His1,Glu14,Arg17]-pramlintide] ({C20 diacid-γGlu}-HHHCNTATCATQRLAEFLRHSSNNFGPILPPTNVGSNTY-NH2; disulfide 4-9) | – | –
2 | – | 0.672 | 4.51 | 1.75 | – | – | – | – | – | – | – | – | – | 1.44 | – | – | CC(C)C[C@H](NC(=O)[C@H](CCCNC(=N)N)NC(=O)[C@H](CCC(N)=O)NC(=O)[C@@H](NC(=O)[C@H](C)NC(=O)[C@@H]1CSSC[C@H](NC(=O)[C@H](CCC(=O)O)NC(=O)CC[C@H](NC(=O)CCCCCCCCCCCCCCCCCCC(=O)O)C(=O)O)C(=O)NCC(=O)N[C@@H]([C@@H](C)O)C(=O)N[C@@H](C)C(=O)N[C@@H]([C@@H](C)O)C(=O)N1)[C@@H](C)O)C(=O)N[C@@H](C)C(=O)N[C@@H](CCC(=O)O)C(=O)N[C@@H](Cc1ccccc1)C(=O)N[C@@H](CC(C)C)C(=O)N[C@H](C(=O)N[C@@H](CCCNC(=N)N)C(=O)N[C@@H](CO)C(=O)N[C@@H](CO)C(=O)N[C@@H](CO)C(=O)N[C@@H](CO)C(=O)N[C@@H](Cc1ccccc1)C(=O)NCC(=O)N[C@@H](C)C(=O)N1CCC[C@H]1C(=O)N[C@@H](CC(C)C)C(=O)N[C@@H](CO)C(=O)N[C@@H](CO)C(=O)N[C@H](C(=O)N[C@@H](CCC(=O)O)C(=O)N[C@H](C(=O)NCC(=O)N[C@@H](CO)C(=O)N[C@@H](CCCNC(=N)N)C(=O)N[C@H](C(=O)N[C@@H](Cc1ccc(O)cc1)C(N)=O)[C@@H](C)O)C(C)C)[C@@H](C)O)C(C)C [Example 24, N-alpha-[(S)-4-Carboxy-4-(19-carboxynonadecanoylamino)butyryl]-[Glu1,Gly3,Glu14,Arg18,Ser21,Ser22,Ala25,Pro26,Ser28,Ser29,Glu31,Arg35]-pramlintide] ({C20 diacid-γGlu}-ECGTATCATQRLAEFLVRSSSSFGAPLSSTEVGSRTY-NH2; disulfide 2-7 (inferred); C-terminus assumed) | – | –
3 | 0.164 | 0.222 | – | – | > 200 | > 200 | > 200 | > 200 | > 200 | > 200 | > 200 | 68 (≈ 289 µg/mL) | – | – | > 200 | > 200 | CC[C@H](C)[C@H](NC(=O)[C@@H]1CCCN1C(=O)CNC(=O)[C@H](Cc1ccccc1)NC(=O)[C@H](CC(N)=O)NC(=O)[C@H](CC(N)=O)NC(=O)[C@H](CO)NC(=O)[C@H](CO)NC(=O)[C@H](CCCNC(=N)N)NC(=O)[C@H](Cc1c[nH]cn1)NC(=O)[C@H](CC(C)C)NC(=O)[C@H](Cc1ccccc1)NC(=O)[C@H](CCC(=O)O)NC(=O)[C@H](C)NC(=O)[C@H](CC(C)C)NC(=O)[C@H](CCCNC(=N)N)NC(=O)[C@H](CCC(N)=O)NC(=O)[C@@H](NC(=O)[C@H](C)NC(=O)[C@@H]1CSSC[C@H](NC(=O)CC[C@H](NC(=O)CCCCCCCCCCCCCCCCCCC(=O)O)C(=O)O)C(=O)NCC(=O)N[C@@H]([C@@H](C)O)C(=O)N[C@@H](C)C(=O)N[C@@H]([C@@H](C)O)C(=O)N1)[C@@H](C)O)C(=O)N[C@@H](CC(C)C)C(=O)N1CCC[C@H]1C(=O)N1CCC[C@H]1C(=O)N[C@H](C(=O)N[C@@H](CCC(=O)O)C(=O)N[C@H](C(=O)NCC(=O)N[C@@H](CO)C(=O)NCC(=O)N[C@H](C(=O)N[C@@H](Cc1ccc(O)cc1)C(N)=O)[C@@H](C)O)C(C)C)[C@@H](C)O [Example 3, N-alpha-[(S)-4-Carboxy-4-(19-carboxynonadecanoylamino)butyryl]-[des1,Gly3,Glu14,His17,Arg18,Glu31,Gly35]-pramlintide] ({C20 diacid-γGlu}-CGTATCATQRLAEFLHRSSNNFGPILPPTEVGSGTY-NH2; disulfide 1-6 (inferred)) | 37 | 32
